# Columns and labels:
# [1] = biological target: T1, human Cereblon WT GST-tagged protein (CRBN) (Homo sapiens, UniProt Q96SW2); assay: CRBN binding by HTRF (Cereblon binding kit); conditions: for inhibition at 0.5 µM: read-out: Inhibition Rate at 0.5 μM (%); for inhibition at 2 µM: read-out: Inhibition Rate at 2 μM (%)
# T1 construct: purchased CISBIO 64BDCRBNPEH
# Protocol: The CEREBLON BINDING kits (specification: 10,000 tests; product number: Catalog #64BDCRBNPEH; CISBIO company) was used to determine the CRBN binding ability of the compounds to be tested through a HTRF method (homogeneous time-resolved fluorescence). The specific methods are as follows: • 1. According to the instructions of the CEREBLON BINDING KITS, serial dilutions were performed for the test compounds of the present disclosure (including the compounds in Table 1, Table 2, and Examples 1-468) and for lenalidomide. Specifically, diluent #9 (1×) solution was used as the diluent, and multiple concentration gradients were set. The dilution operation can be performed according to one of the following two methods: • (1) The first dilution method: The test compounds of the present disclosure (including the compounds in Table 1, Table 2, and Examples 1-468) were subjected to 5-fold serial dilutions starting from a highest concentration of 40 μM, resulting in a total of 7 concentrations from high to low (40, 8, 1.6, 0.32, 0.064, 0.0128, 0.00256 μM). Subsequently, the diluted test compounds and corresponding detection reagents were added to each well of a 96-well plate, resulting in final test compound concentrations of 10, 2, 0.4, 0.08, 0.016, 0.0032, and 0.00064 μM, respectively. • (2) As an alternative, a second dilution method can be used: The test compounds of the present disclosure (including the compounds in Table 1, Table 2, and Examples 1-468) were subjected to 4-fold gradient dilutions starting from a highest concentration of 8 μM, resulting in 2 concentrations (8 μM, 2 μM). Into the 96-well plate, the diluted test compounds and corresponding detection reagents were added, resulting in final test compound concentrations of 2 μM and 0.5 μM, respectively. The experimental procedure is described below using the diluted 8 μM test compound and lenalidomide solutions as examples. • 2. 2.5 μL of the above 8 μM of the tested compounds and lenalidomide solution, as well as the same volume of diluent #9 (1×) solution (solvent control group, Std0) were added to each well of a 96-well plate, respectively. Then, 2.5 μL of human Cereblon WT GST-tagged protein solution was added to each well. Finally, 5 μL of the thoroughly mixed Thalidomide-Re reagent and GST Eu antibody working solution were added to each of the aforementioned wells. The final concentration of the tested compounds and lenalidomide in each well was 2 μM. • 3. The blank control wells were sequentially added with 2.5 μL of diluent #9 (1×) solution, 2.5 μL of PROTAC binding buffer, and 5 μL of thoroughly mixed Thalidomide-Re reagent and GST Eu antibody working solution. • 4. After sealing and incubating the solutions in the aforementioned wells at room temperature for 3 hours, the absorbance values at emission wavelengths of 620 nm and 665 nm were detected by the HTRF method using a Spark microplate reader (V3.1 SP1).
# The corresponding CRBN binding inhibition rate was calculated using the following method:
# Rcompound=OD 665 nmcompound/OD 620 nmcompound−OD 665 nmcontrol/OD 620 nmcontrol
# RStd0=OD 665 nmStd0/OD 620 nmStd0−OD 665 nmcontrol/OD 620 nmcontrol inhibition rate (%)=(1−Rcompound/RStd0)*100
# Note: OD 665 nmcompound is the absorbance value of each well of the compounds to be tested of the present disclosure at an emission wavelength of 665 nm. OD 620 nmcompound is the absorbance value of each well of the compounds to be tested of the present disclosure at an emission wavelength of 620 nm. OD 665 nmcontrol is the absorbance value of the blank control well at an emission wavelength of 665 nm. OD 620 nmcontrol is the absorbance value of the blank control well at an emission wavelength of 620 nm. OD 665 nmStd0 is the absorbance value of the solvent control well at an emission wavelength of 665 nm. OD 620 nmStd0 is the absorbance value of the solvent control well at an emission wavelength of 620 nm.
# [2] = tested on: Human Multiple myeloma cell line (MM.1S); assay: Inhibition of MM.1S cell proliferation (CellTiter luminescent viability); assay type: cell-based; conditions: Homo sapiens, MM1.S, Table IG1, FAK inhibitor-based, 96 hours
# Method in brief: (§1)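 IC50 is fitted from luminescent viability (CellTiter-Meiluncell) curves. Nine-point, 5-fold dilution series (top stock 2000 μM) are added at 0.5 μL per 100 μL medium to cells plated the day before, with growth at 37 °C and 5% CO2.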
# [3] = tested on: Human myeloid monocytic leukemia cell line (MV-4-11); assay: Inhibition of MV-4-11 cell proliferation (CellTiter luminescent viability); assay type: cell-based; conditions: Homo sapiens, MV4-11, Table IG2, FAK inhibitor-based, 96 hours
# Method in brief: as §1
# IRAK4 = biological target: T2, IRAK4 (Homo sapiens, UniProt Q9NWZ3); assay: Western blot degradation of IRAK4; assay type: cell-based; conditions: hPBMC Cell; 24 hours
# T2 construct: expression of target proteins in cells; endogenous in cells
# T2 sequence (Q9NWZ3 1-460): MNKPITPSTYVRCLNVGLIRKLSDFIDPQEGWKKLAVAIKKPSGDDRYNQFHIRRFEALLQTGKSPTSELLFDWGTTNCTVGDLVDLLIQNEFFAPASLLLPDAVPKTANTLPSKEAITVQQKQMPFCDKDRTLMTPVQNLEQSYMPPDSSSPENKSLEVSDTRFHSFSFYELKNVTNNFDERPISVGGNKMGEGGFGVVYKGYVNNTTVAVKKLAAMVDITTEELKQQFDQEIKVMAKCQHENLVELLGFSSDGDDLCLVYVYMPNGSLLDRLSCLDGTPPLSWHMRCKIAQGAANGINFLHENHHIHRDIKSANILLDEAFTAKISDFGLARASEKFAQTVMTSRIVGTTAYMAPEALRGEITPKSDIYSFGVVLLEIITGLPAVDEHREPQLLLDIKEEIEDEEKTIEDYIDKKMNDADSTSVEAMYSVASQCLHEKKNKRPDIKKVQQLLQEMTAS
# Method in brief: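 Compound-treated cells harvested; lysates denatured 5 min at 95 °C, run on SDS-PAGE, blotted to NC membrane, blocked 1 h RT, probed with antibodies. Densitometry vs DMSO → DC50; target normalised to internal control → % remaining, degradation = 1 − remaining.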
# T1 sequence (Q96SW2 whole entry): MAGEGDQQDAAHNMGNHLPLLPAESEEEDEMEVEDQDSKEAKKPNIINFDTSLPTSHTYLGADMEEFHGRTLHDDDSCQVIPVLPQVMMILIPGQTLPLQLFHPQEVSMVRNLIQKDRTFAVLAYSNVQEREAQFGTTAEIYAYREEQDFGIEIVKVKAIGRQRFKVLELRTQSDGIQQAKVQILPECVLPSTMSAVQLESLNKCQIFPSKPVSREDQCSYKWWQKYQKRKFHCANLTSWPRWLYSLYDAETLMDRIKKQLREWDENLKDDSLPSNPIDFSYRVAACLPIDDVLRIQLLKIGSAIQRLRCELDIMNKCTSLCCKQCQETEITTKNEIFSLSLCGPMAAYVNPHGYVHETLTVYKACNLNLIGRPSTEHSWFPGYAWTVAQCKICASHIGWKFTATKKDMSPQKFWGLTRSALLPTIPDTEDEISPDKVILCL
Structure (SMILES),inhibition at 0.5 µM ([1]; 0.5 μM),inhibition at 2 µM ([1]; 2 μM),further results
"Cn1ncc(Cl)c1-c1cc(C(=O)N[C@H](CNCC2CCN(c3cccc4c3C(=O)N(N3CCC(=O)NC3=O)C4=O)CC2)Cc2cccc(F)c2)sc1Cl [GT-08587, (S)-5-chloro-4-(4-chloro-1-methyl-1H-pyrazol-5-yl)-N-(1-(((1-(2-(2,4-dioxotetrahydropyrimidin-1(2H)-yl)-1,3-dioxoisoindolin-4-yl)piperidin-4-yl)methyl)amino)-3-(3-fluorophenyl)propan-2-yl)thiophene-2-carboxamide]",10 to 20%,53 to 60%,–
"CNC(=O)c1ccccc1Nc1cc(Nc2ccc(N3CCN(Cc4ccc5c(c4)CN(N4CCC(=O)NC4=O)C5=O)CC3)cc2OC)ncc1C(F)(F)F [GT-07660, 2-((2-((4-(4-((2-(2,4-dioxotetrahydropyrimidin-1(2H)-yl)-1-oxoisoindolin-5-yl)methyl)piperazin-1-yl)-2-methoxyphenyl)amino)-5-(trifluoromethyl)pyridin-4-yl)amino)-N-methylbenzamide]",30 to 40%,60 to 80%,"inhibition at 0.01 µM ([2]; 10 nM, read-out: Inhibition Rate at 10 nM (%)): 15 to 20%; inhibition at 0.5 µM ([2]; 500 nM, read-out: Inhibition Rate at 500 nM (%)): 60 to 80%; inhibition at 0.01 µM ([3]; MV-4-11, 10 nM, read-out: Inhibition Rate at 10 nM (%)): 50 to 60%; inhibition at 0.5 µM ([3]; MV-4-11, 500 nM, read-out: Inhibition Rate at 500 nM (%)): 80 to 100%"
"O=C1CCN(N2Cc3cc(CN4CCN(c5ccn6c(n5)nc5ccccc56)CC4)ccc3C2=O)C(=O)N1 [GT-08565, 1-(5-((4-(benzo[4,5]imidazo[1,2-a]pyrimidin-2-yl)piperazin-1-yl)methyl)-1-oxoisoindolin-2-yl)dihydropyrimidine-2,4 (1H,3H)-dione]",10 to 20%,60 to 80%,–
"O=C1CCN(N2C(=O)c3ccc(N4CC5CCC4CN5CC4CCN(c5ccn6c(n5)nc5ccccc56)CC4)cc3C2=O)C(=O)N1 (centres unmarked) [GT-08828, 5-(5-((1-(benzo[4,5]imidazo[1,2-a]pyrimidin-2-yl)piperidin-4-yl)methyl)-2,5-diazabicyclo[2.2.2]octan-2-yl)-2-(2,4-dioxotetrahydropyrimidin-1(2H)-yl)isoindoline-1,3-dione]",20 to 30%,53 to 60%,–
"CN(C)C(=O)c1cc2cnc(Nc3ccc(N4CCC(CN5CC6CC(C5)N6c5ccc6c(c5)C(=O)N(N5CCC(=O)NC5=O)C6=O)CC4)cn3)nc2n1C1CCCC1 [GT-05201, 7-cyclopentyl-2-((5-(4-((6-(2-(2,4-dioxotetrahydropyrimidin-1(2H)-yl)-1,3-dioxoisoindolin-5-yl)-3,6-diazabicyclo[3.1.1]heptan-3-yl)methyl)piperidin-1-yl)pyridin-2-yl)amino)-N,N-dimethyl-7H-pyrrolo[2,3-d]pyrimidine-6-carboxamide]",–,–,Inhibition Rate at 0.5 μM (%) ([1]; 0.5 μM): a3 (30% < a3 ≤ 40%); Inhibition Rate at 2 μM (%) ([1]; 2 μM): a5 (53% < a5 ≤ 60%)
"O=C1CCN(N2C(=O)c3ccc(N4CC5CCC4CN5C[C@H]4CC[C@H](n5cc(NC(=O)c6cnn7ccc(N8C[C@H]9C[C@@H]8CO9)nc67)c(C(F)F)n5)CC4)cc3C2=O)C(=O)N1 [GT-05833, 5-((1R,4R)-2-oxa-5-azabicyclo[2.2.1]heptan-5-yl)-N-(3-(difluoromethyl)-1-((1r,4R)-4-((5-(2-(2,4-dioxotetrahydropyrimidin-1(2H)-yl)-1,3-dioxoisoindolin-5-yl)-2,5-diazabicyclo[2.2.2]octan-2-yl)methyl)cyclohexyl)-1H-pyrazol-4-yl)pyrazolo[1,5-a]pyrimidine-3-carboxamide]",40 to 53%,60 to 80%,Degradation of substrate protein IRAK4 (substrate protein remaining %) (IRAK4): A (0%≤substrate protein remaining %≤80%)

# Continued, in another order:
inhibition at 0.5 µM ([1]; 0.5 μM),inhibition at 2 µM ([1]; 2 μM),Structure (SMILES),further results
20 to 30%,53 to 60%,"CN(Cc1ccc(-c2[nH]c3cc(F)cc4c3c2CCNC4=O)cc1)Cc1ccc2c(c1)CN(N1CCC(=O)NC1=O)C2=O [GT-08403, 1-(5-(((4-(8-fluoro-1-oxo-2,3,4,6-tetrahydro-1H-azepino[5,4,3-cd]indol-5-yl)benzyl)(methyl)amino)methyl)-1-oxoisoindolin-2-yl)dihydropyrimidine-2,4(1H,3H)-dione]",–
10 to 20%,53 to 60%,"Cc1cc(-c2ccc3c4cnccc4n(C)c3c2)cnc1N1CCN(Cc2ccc3c(c2)CN(N2CCC(=O)NC2=O)C3=O)CC1 [GT-08540, 1-(5-((4-(3-methyl-5-(5-methyl-5H-pyrido[4,3-b]indol-7-yl)pyridin-2-yl)piperazin-1-yl)methyl)-1-oxoisoindolin-2-yl)dihydropyrimidine-2,4 (1H,3H)-dione]",–
30 to 40%,60 to 80%,"Cn1c2ccncc2c2ccc(-c3cnc(N4CCN(Cc5ccc6c(c5)CN(N5CCC(=O)NC5=O)C6=O)CC4)c(Cl)c3)cc21 [GT-08541, 1-(5-((4-(3-chloro-5-(5-methyl-5H-pyrido[4,3-b]indol-7-yl)pyridin-2-yl)piperazin-1-yl)methyl)-1-oxoisoindolin-2-yl)dihydropyrimidine-2,4 (1H,3H)-dione]",–

# Source: patent US20260364184A1, “COMPOUND BASED ON OXOISOINDOLINYL-SUBSTITUTED TETRAHYDROPYRIMIDINE-DIONE AND USE THEREOF” (GLUETACS THERAPEUTICS (SHANGHAI) CO., LTD., priority 2023, published 2026)
